# “Also recorded” adds a separate entry of the source.
# Assays:
# [1] = test system: human mesenchymal stem cells (MSC); test: In vivo trafficking of 111In-labeled human mesenchymal stem cells (MSC) after glycoprotein infusion, gamma camera imaging; set-up: species or system NOD-SCID mice; details: for % Infused Cells in Heart: 0.56×10^6 MSC preceded by 11 mg orosomucoid i.v.
# Procedure: Human mesenchymal stem cells (hMSCs; PT-2501) obtained through a FDA monitored paid bone marrow donor program were purchased from Poietics Technologies, BioWhittaker (Walkerville, Md.). The cells were thawed according to manufacturer recommendations, resuspended, and radiolabeled in Mesenchymal Stem Cell Basal Medium (MSCBM).
# (§1) ^111Indium Oxine Labeling Procedure: ^111In-oxine labeling of adult human CD34+ or mesenchymal stem cells (hMSCs) was performed using a modification of the Amersham Healthcare Procedure for labeling autologous leukocytes.
# (§2) Imaging procedures: Nuclear Medicine. NOD-SCID mice were anesthetized using rodent anesthesia cocktail. Once anesthetized, the mice were placed on a foam hemi-cylindrical mouse positioning device (MPD) and covered with a tube sock. The MPD allows better visual separation of the lungs and liver as compared to placing the mouse on a flat surface. The foam on which the mouse was placed, and the tube sock covering maintained a comfortable temperature permitting longer imaging without additional anesthesia. The MPD was placed on a narrow table between the dual heads of a Siemens E.Cam Gamma Camera and imaged statically or dynamically in 2-D or SPECT. ^57Co-Spot Marker is used to mark anatomic positions (nose, tail, cannula, etc.). The data was analyzed using a Siemens ICON system for regions of interest or percent of injected dose (e.g. liver, spleen, heart).
# (§3) Gamma camera imaging using a Siemens E. Cam dual head gamma camera monitored the in vivo trafficking patterns of all human stem cells described in the following examples. Mice were placed on a Mouse Positioning Device (MPD) and placed between the detectors on the imaging platform.
# MSC were obtained from BioWhittaker, (Poietics Division, cryopreserved PT-2501 >750,000 cells per ampoule) and labeled with ^111In as in previous examples, except that the MSC were labeled, washed, and injected in Basal Stem Cell Medium (Poietics) containing 5% human serum albumin (HSA). 0.56×10^6 111In labeled, human mesenchymal stem cells (MSC) were administered via an implanted Da Vinci Microport Vascular System cannula in the external jugular vein of a two-month old, female NOD-SCID mouse in 0.21 ml of basal stem cell medium containing 5% human serum albumin (HSA). Immediately prior to administration of MSC, 11.0 mg of orosomucoid was administered i.v. in 0.2 ml.
# 0.56×10^6 “In-labeled, MSC were administered i.v. in 0.21 ml of basal stem cell medium containing 5% human serum albumin (HSA). Prior to administration of MSC, 0.1 ml containing 4.3 mg of ASO, followed by 0.1 ml containing 5.5 mg orosomucoid were administered i.v. The ASO, orosomucoid and MSC were administered via an implanted Da Vinci Microport Vascular system cannula in the external jugular vein of a two-month old, female NOD-SCID mouse.
# [2] = test system: human CD34+ (hCD34+) peripheral blood stem cells; test: In vivo trafficking of 111In-labeled human CD34+ stem cells (HSC) after glycoprotein infusion, gamma camera imaging; set-up: species or system NOD-SCID mice; details: for % Infused Cells in Liver/Spleen: 5.75×10^6 HSC preceded by 5.5 mg orosomucoid i.v.; for organ localization of infused hematopoietic (CD34+) stem cells, in words: cells preceded by infusion of the protein, jugular vein, immunodeficient mice
# Procedure: Intravenous cannulas were placed into the external jugular vein of NOD-SCID mice under anesthesia (Institutional Animal Care and Use Committee protocol #AM87046-07) to enable the efficient delivery of ^111In-labeled stem cells i.v. Tylenol elixir was administered by mouth after recovery from anesthesia. Briefly radiolabeled CD34+ cells were taken up in 100-250 ul of 5% human plasma albumin in saline and injected into the cannula and then flushed with 50 ul of the albumin-saline. The mice were imaged by nuclear medicine.
# Mice: NOD-SCID, female mice (Nonobese diabetic/LtSz-scid/scid) were obtained from the Jackson Laboratory, Bar Harbor, Me. at 1-2 months of age. These animals were maintained in microisolator cages in a special isolator room. The air was HEPA filtered, and the animals were changed in a laminar flow hood within the facility. All food, bedding, and water was sterilized. […] See, e.g. Hogan, et al., Biology of Blood & Marrow Transplantation 3:236-246 (1997); Noort, et al., Bone Marrow Transplantation 22 Suppl 1:S58-60 (1998).
# as §1, §2, §3
# 5.75×10^6 111In-labeled human CD34+ (hCD34+) peripheral blood stem cells were administered intravenously (i.v.) via an external jugular vein cannula to 2 month old, NOD-SCID, female mice (Non-obese diabetic/LtSz-scid/scid) obtained from the Jackson Laboratory, Bar Harbor, Me. The radiolabeled CD34+ stem cells were administered after pretreatment of the mouse with 3.3 mg of asialoorosomucoid (ASO) i.v. The in vivo trafficking patterns were followed by gamma camera imaging using a Siemens E.Cam dual head gamma camera from immediately after injection up to 36 hr postinfusion. Human CD34+ were isolated from apheresis stem cell collection products derived from deceased cancer patients. They were purified to 95-99% purity using antibody conjugated to CD34 conjugated to magnetics beads (MACS) separation columns; Miltenyi Biotec, Auburn, Calif. and cryopreserved.
# 5.75×10^6 111In-labeled human CD34+ (hCD34+) peripheral blood stem cells were administered intravenously (i.v.) via an external jugular vein cannula to 2 month old, NOD-SCID, female mice (Non-obese diabetic/LtSz-scid/scid) obtained from the Jackson Laboratory, Bar Harbor, Me. The radiolabeled CD34+ stem cells were administered after pretreatment of the mouse with 5.5 mg of orosomucoid (O) i.v.
# The preparation and procedures set forth in Example I were repeated. […]
# [3] = test system: human CD34+ (hCD34+) peripheral blood stem cells; test: as above; set-up: species or system NOD-SCID mice; details: 0.5×10^6 HSC preceded by 11 mg orosomucoid i.v.
# Caki-2 Targets [4] = test: 51Cr-release assay of LAK effectors against CAKI-2 with agent added; format: cell-based, human; details: for % 51Chromium Release from Caki-2 Targets: agent 250 μg per well, 5-day LAK, 4-hour incubation
# Excerpt: A working hypothesis is that LAK/NK cells bind to HEPG2 via at least two receptors or recognition structures: 1) the ASGPR, which binds an asialodeterminant on the LAK/NK population and 2) the “LAK” or “NK” recognition structure for a target epitope. The first should be inhibitable by ASF; the second should not be. Binding to CAKI-2 (ASGPR−) should not be inhibited by ASF and is due to a LAK or NK recognition structure binding to the target epitope. This can be further supported by data derived from experiments (see below) in which 250 μg/well of ASF or F were added to the ^51Cr-release assay of LAK effectors against the labeled target CAKI-2.
# (% SPECIFIC RELEASE was determined from quadruplicates whose raw counts per minute differed by less than 10 percent; the assay was a standard 4-hour incubation.)
# [5] = test system: RAJI (LAK-sensitive target; NK-insensitive target); test: Cytotoxic capacity of LAK effectors in 51Cr-release assay on RAJI; format: cell-based, human
# Procedure: (§4) Control cells (no IL-2 treatment) or LAK cells (IL-2-treated human peripheral blood lymphocytes cultured 10U IL-2/ml for 3 days) were adhered to a monolayer of HEP G2 cells for 2 hours at 4° C. The monolayer was pretreated either with asialofetuin (ASF, 200 μg/ml) in media or with fetuin (F, control, 200 μg/ml)) in media. After the Control or LAK cells had been incubated on the monolayer, these cells were then decanted, washed, and tested for cytotoxic capacity in a ^51Cr-release assay against the NK-resistant target, Raji.
# (§5) This experiment is the same as above, except that the adherence to monolayers was performed at 23° C. and not 4° C., for 2 hours. Two monolayers were used: HEPG2, an ASGPR+ cell line, and CAKI-2 (human renal cell carcinoma), an ASGPR− cell line. The effector cell populations that were used were: an untreated 3-day old LAK preparation (LAK) and the same population treated with Vibrio cholera neuraminidase (LAK/NS) (30 mU/1×10^7 cells/200 μl). The neuraminidase-treated population was the asialopositive lymphocyte control. All cell populations regardless of treatment were greater than 90% viable at the time of assay. Each type of effector population was incubated with media alone, 200 μg/ml ASF or F, as controls. All effectors were assayed on RAJI (LAK-sensitive target; NK-insensitive target) or K562 (NK/LAK-sensitive target); the E:T ratios and the graphic presentation are the same above.
# (§6) Five-day LAK preparations (20 U/ml; 1 Dupont unit=44.5 BRMP units) grown in AIM-V (Gibco) were treated (according to the protocols in B. 1.2.3 & 1.2.4) with 3 OmU Vibric Cholera neuramindase, 0.48 mU 2,3-or 10 mu 2,6-silalyltransferase per 107 cells. Some of the effectors were incubated in media, 10% PBS in RPMJ 1640 at 23° C. for 2 hours. 2×107 effectors from the untreated LALK, neuramithdase-treated LAK, LAK treated with 2,3 or 2,6 were suspended in 15 ml media and placed onto either HEPG2 (ASGPR+) or CAKI-2 (ASGPR−) monolayers at 23° C. for 2 hours. The flasks were rocked every 15 minutes. The nonadherent cells from these monolayers were decanted and assayed against K562 and RAJI, in addition to the unadhered controls. The E:T ratios used were 40, 20, 10, and 5 to 1.
# CAKI-2 (ASGPR−) = test: Adherence of NK/LAK activity to CAKI-2 monolayers at 23° C; format: cell-based, human; details: 23° C; 200 μg/ml
# Procedure: as §5, §6
# HEPG2 (ASGPR+) [6] = test: Adherence of NK/LAK activity to HEPG2 monolayers at 4° C; format: cell-based, human; details: monolayer pretreated with 200 μg/ml protein, 2 hours at 4° C, assayed on Raji
# Procedure: as §4
# [7] = test system: K562 (NK/LAK-sensitive target); test: Cytotoxic capacity of IL-2 activated NK effectors in 51Cr-release assay on K562; format: cell-based, human; details: 200 μg/ml; 23° C
# Procedure: as §5, §6
# HEPG2 (ASGPR+) [8] = test: Adherence of NK/LAK activity to HEPG2 monolayers at 23° C; format: cell-based, human; details: 23° C, 200 μg/ml
# Procedure: as §5, §6
# Caki-2 Targets [9] = test: 51Cr-release assay of LAK effectors against CAKI-2 with agent added; format: cell-based, human; details: concentration of 1 mg/ml
substance,measurement,setting,value
alpha-(1)-acid glycoprotein [Orosomucoid],% Infused Cells in Heart,[1]; 0 hr,68 ± 7% at 0 hr
same,% Infused Cells in Heart,"[1]; 0 hr, listed as orosomucoid",68±7%
same,% Infused Cells in Heart,[1]; 1 hr,61 ± 3% at 1 hr
same,% Infused Cells in Heart,"[1]; 1 hr, listed as orosomucoid",61±3%
same,"organ localization of infused mesenchymal stem cells, in words","[1]; cells preceded by infusion of the protein, jugular vein, immunodeficient mice",predominantly localize in the heart
same,"111In-labeled cells in the region of the heart, in words","[2]; 5.75×10^6 HSC after 5.5 mg orosomucoid i.v., up to 36 hours",No ^111In-labeled cells were found in the region of the heart
same,% Infused Cells in Liver/Spleen,[2]; 1.5 hr,74 ± 4% at 1.5 hr
same,% Infused Cells in Liver/Spleen,"[2]; 1.5 hr, listed as orosomucoid",74±4%
same,% Infused Cells in Liver/Spleen,[2]; 24 hr,63 ± 1% at 24 hr
same,% Infused Cells in Liver/Spleen,"[2]; 24 hr, listed as O",63.6%
same,% Infused Cells in Liver/Spleen,"[2]; 24 hr, listed as orosomucoid",63±1%
same,% Infused Cells in Liver/Spleen,[2]; immediately after infusion (0 hr),74 ± 3% at 0 hr
same,% Infused Cells in Liver/Spleen,"[2]; immediately after infusion (0 hr), listed as O",76.3%
same,% Infused Cells in Liver/Spleen,"[2]; immediately after infusion (0 hr), listed as orosomucoid",74±3%
same,"organ localization of infused hematopoietic (CD34+) stem cells, in words",[2]; listed as O,migrated immediately to the liver/spleen area
same,"organ localization of infused hematopoietic (CD34+) stem cells, in words",[2]; listed as orosomucoid (O),localize in the liver
same,% of infused cells in the liver region,[3]; 1 hr,40±3%
same,% of infused cells in the liver and spleen,[3]; immediately after infusion,43±2%
asialofetuin [ASF],% 51Chromium Release from Caki-2 Targets,Caki-2 Targets [4]; E:T 5:1,13%
same,% 51Chromium Release from Caki-2 Targets,Caki-2 Targets [4]; E:T 10:1,24%
same,% 51Chromium Release from Caki-2 Targets,Caki-2 Targets [4]; E:T 20:1,41%
same,% 51Chromium Release from Caki-2 Targets,Caki-2 Targets [4]; E:T 40:1,52%
same,"blocking of LAK killing of the tumor target CAKI-2, in words",Caki-2 Targets [4]; preincubation of targets and addition to the assay at 250 μg per well,does not block
same,activity of LAK or Control preparations incubated with the protein alone versus untreated LAK,"[5]; 200 μg/ml for 2 h at 40C, no monolayer",identical activity
same,ability of effectors (LAK or LAK/NS) to kill RAJI after preincubation with the protein,"[5]; 200 μg/ml, 23° C",does not affect
same,inhibition of adherence to CAKI-2 of IL-2 activated NK or LAK activity,CAKI-2 (ASGPR−),could not be inhibited; also recorded: cannot be blocked
same,"adherence of LAK activity to HEPG2 monolayer, in words",HEPG2 (ASGPR+) [6],virtually all LAK activity can be inhibited from adhering
same,"adherence of LAK activity to HEPG2 monolayer, in words",HEPG2 (ASGPR+) [6]; listed as asialofetuin,not removed; also recorded: does not adhere
same,ability of effectors (LAK or LAK/NS) to kill K562 after preincubation with the protein,[7],does not affect
same,inhibition of adherence to HEPG2 of LAK activity (assayed on RAJI),HEPG2 (ASGPR+) [8],could not be inhibited; also recorded: cannot be inhibited
same,inhibition of adherence of LAK activity of the neuraminidase-treated population to HEPG2,HEPG2 (ASGPR+) [8]; assayed on RAJI,only marginally be inhibited
same,inhibition of adherence to HEPG2 of IL-2 activated NK (assayed on K562),HEPG2 (ASGPR+) [8]; with or without neuraminidase treatment,partially inhibited
same,"inhibition of the ability of LAK to kill CAKI-2 target, in words",Caki-2 Targets [9],did not inhibit
